Test results: patent US11053204B2, “Pyrimidinyloxy benzene derivatives as herbicides” (FMC Corporation, priority 2015, dated 2021)

How the values were obtained:
Type in all cases: in vivo
[1] = system: johnsongrass (Sorghum halepense); assay: Test C postemergence, plant response rating; details: for Plant response rating, Johnsongrass: scale 0 to 100; for Johnsongrass plant response rating: scale 0 to 100 (0 no effect, 100 complete control)
Summary of the method: (§1)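 After sowing in loam–sand blend or silt loam, pots were sprayed preemergence; separately grown 1- to 4-leaf plants were sprayed postemergence. Following 13 to 15 d under greenhouse conditions, injury was rated visually on a 0 to 100 scale.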

[2] = system: pigweed (Amaranthus retroflexus); assay: Test C postemergence, plant response rating
Summary of the method: as §1

[3] = system: galium (catchweed bedstraw, Galium aparine); assay: Test C preemergence, plant response rating
[4] = system: pigweed (Amaranthus retroflexus); assay: Test C preemergence, plant response rating; details: Preemergence
[5] = system: barnyardgrass (Echinochloa crus-galli); assay: Test C preemergence, plant response rating; details: Preemergence
[6] = system: johnsongrass (Sorghum halepense); assay: Test C preemergence, plant response rating

| SMILES | Plant response rating, Johnsongrass ([1]; 16 g ai/ha) | Plant response rating, Johnsongrass ([1]; 31 g ai/ha) | Johnsongrass plant response rating ([1]; 62 g ai/ha) | Johnsongrass plant response rating ([1]; 125 g ai/ha) | Plant response rating, Galium ([3]; 16 g ai/ha, scale 0 to 100) | Plant response rating, Galium ([3]; 31 g ai/ha, scale 0 to 100) | Plant response rating, Galium ([3]; 62 g ai/ha, scale of 0 to 100) | Plant response rating, Galium ([3]; 125 g ai/ha, scale of 0 to 100) | Plant response rating, Pigweed ([4]; 125 g ai/ha, scale of 0 to 100) | Plant response rating, Pigweed ([4]; 16 g ai/ha, scale 0 to 100) | Plant response rating, Pigweed ([4]; 31 g ai/ha, scale 0 to 100) | Plant response rating, Pigweed ([4]; 62 g ai/ha, scale 0 to 100) | Plant response rating, Johnsongrass ([6]; 16 g ai/ha, scale 0 to 100) | Plant response rating, Johnsongrass ([6]; 31 g ai/ha, scale 0 to 100) | Plant response rating, Johnsongrass ([6]; 62 g ai/ha, scale 0 to 100) | Plant response rating, Johnsongrass ([6]; 125 g ai/ha, scale of 0 to 100) | further results |
| --- | --- | --- | --- | --- | --- | --- | --- | --- | --- | --- | --- | --- | --- | --- | --- | --- | --- |
| O=C(OCCC(F)(F)F)c1c(Br)cccc1Oc1ncc(Cl)cn1 [Compound 26, 3,3,3-trifluoropropyl 2-bromo-6-[(5-chloro-2-pyrimidinyl)oxy]benzoate] | 10 | 20 | 20 | 25 | 5 | 90 | 95 | 100 | 100 | 100 | 100 | 100 | 55 | 50 | 80 | 98 | pest or weed control at 16 g/ha ([2]; Amaranthus retroflexus, post-emergence, 16 g ai/ha, scale 0 to 100): 75%; pest or weed control at 31 g/ha ([2]; Amaranthus retroflexus, post-emergence, 31 g ai/ha, scale 0 to 100): 98%; pest or weed control at 62 g/ha ([2]; Amaranthus retroflexus, post-emergence, 62 g ai/ha, scale 0 to 100 (0 no effect, 100 complete control)): 98%; pest or weed control at 125 g/ha ([2]; Amaranthus retroflexus, post-emergence, 125 g ai/ha, scale 0 to 100 (0 no effect, 100 complete control)): 100%; pest or weed control at 62 g/ha ([5]; Echinochloa crus-galli, pre-emergence, 62 g ai/ha, scale of 0 to 100): 100%; pest or weed control at 125 g/ha ([5]; Echinochloa crus-galli, pre-emergence, 125 g ai/ha, scale of 0 to 100): 100%; pest or weed control at 16 g/ha ([5]; Echinochloa crus-galli, pre-emergence, 16 g ai/ha, scale 0 to 100): 40%; pest or weed control at 31 g/ha ([5]; Echinochloa crus-galli, pre-emergence, 31 g ai/ha, scale 0 to 100): 75% |
| O=C(OCCC(F)(F)F)c1c(Br)cccc1Oc1ncc(Br)cn1 [Compound 33] | 10 | 10 | 20 | 20 | 0 | 60 | 60 | 95 | 100 | 80 | 100 | 100 | 0 | 5 | 25 | 35 | Plant response rating, Pigweed ([2]; 16 g ai/ha, scale 0 to 100): 95; Plant response rating, Pigweed ([2]; 31 g ai/ha, scale 0 to 100): 95; Pigweed plant response rating ([2]; 62 g ai/ha, scale 0 to 100 (0 no effect, 100 complete control)): 98; Pigweed plant response rating ([2]; 125 g ai/ha, scale 0 to 100 (0 no effect, 100 complete control)): 100; Plant response rating, Barnyardgrass ([5]; 62 g ai/ha, scale of 0 to 100): 95; Plant response rating, Barnyardgrass ([5]; 125 g ai/ha, scale of 0 to 100): 100; Plant response rating, Barnyardgrass ([5]; 16 g ai/ha, scale 0 to 100): 20; Plant response rating, Barnyardgrass ([5]; 31 g ai/ha, scale 0 to 100): 40 |
